pIC50: −log10 of the molar value.
Tests used:
rat glioma C6 = assay: MTS cell viability assay, rat glioma C6 cells; type: cell-based; conditions: C6, 48 h, compositions of paclitaxel with rhAFP or Zn-rhAFP
Procedure: (§1) Tumor cell lines: human mammary carcinoma MCF-7, human hepatoma HepG2, and rat glioma C6—were originated from the American Type Culture Collection (ATCC). All cell lines were maintained in the complete DMEM or RPMI-1640 media supplemented with L-glutamine and 10% fetal calf serum (FCS) in humidified 5% CO2 atmosphere. For a passage, adherent cells were incubated in the EDTA/0.25% trypsin solution, then washed and plated out for experiments. Prior to addition of reagents, cells were washed with the fresh media with 2% FCS, plated onto 96-well polystyrene plates (Costar, USA) at a density of 3×10^3 cell/well in 180 μL of complete medium with 2% FCS and incubated for 2 h. […] Cell proliferation was assessed by [^3H]-thymidine (^3H-TdR) incorporation assay. […] Cells were harvested and the ^3H-TdR incorporation was measured by using the liquid scintillation counter LKB 1209 Rackbeta (LKB, Sweden). Results were expressed as mean counts per minute (cpm)±standard error of the mean of triplicate cultures or as a percentage of ^3H-TdR incorporation in the experimental cell cultures relatively to the untreated control, as described (Semenkova et al., Tumour Biol. 1997; 18: 261-74).
(§2) Cell viability was assessed by the Promega CellTiter 96 AQueous Non-Radioactive Cell Proliferation MTS assay (Promega, USA) according to manufacturer's instructions. […]

[1] = test system: human hepatoma HepG2 cells; assay: MTS cell viability assay, hepatoma HepG2 cells; type: cell-based; conditions: HepG2, 48 h
Procedure: as §1, §2

[2] = test system: breast cancer cells MCF-7; assay: Microscopic evaluation (DAPI, cell count by ImageJ) of viability and apoptosis of MCF-7 cells; type: cell-based, human; conditions: MCF-7, 48 h
Procedure: Concentrations of the compounds were: rhAFP: 3.0 μM, Ptx: 10 μM. Incubation time was 48 h. Patterns on the top (A): magnification ×100; bottom (B): magnification ×400. Cell nuclei were stained with DAPI and visualized with a fluorescent microscope Axioplan, Zeiss equipped with corresponding color filter kits. Apoptotic nuclei at s panel B are shown by arrows. […] Total number of cells in the control wells was taken as 100%. The average data for five wells±mean square deviation are shown.
rhAFP/Ptx equimolar complex was also tested for its growth suppressive activity against tumor cells in vitro. […] Apoptotic cells with condensed chromatin due to rhAFP/Ptx treatments are shown at FIG. 3B with arrows.
MCF-7 cells were seeded onto the microscopic plates Lab-Tek™ Chamber Slides (Thermo Fisher Scientific-Nunc, Germany) for 48 h to reach of 80% confluence and thereafter were subjected to 48-h treatments with Ptx dissolved in DMSO (10 nM), Zn-rhAFP (1.4 μM), or their combination Zn-rhAFP/Ptx (1.4 μM/10 nM). Similarly, the tests had been performed with non-glycosylated rhAFPo species. Thereafter the cells were fixed with 100% ice-cold acetone and stained with DAPI (Molecular probes, USA). Control cells were incubated without additions. […] The quantity of the cells in the various experimental wells in the selected fields of view was assessed by using ImageJ software. […]

- pIC50 (rat glioma C6): 5.60
SMILES: CC(=O)O[C@H]1C(=O)[C@@]2(C)[C@H]([C@H](OC(=O)c3ccccc3)[C@]3(O)C[C@H](OC(=O)[C@H](O)[C@@H](NC(=O)c4ccccc4)c4ccccc4)C(C)=C1C3(C)C)[C@]1(OC(C)=O)CO[C@@H]1C[C@@H]2O [Ptx, paclitaxel]
- sensitivity of HepG2 cells (chemoresistance) [1]: complete resistance
- viable cell count ([2]; FIG. 3: rhAFP 3.0 μM, Ptx 10 μM): 54 % of control
- cell death ([2]; Ptx 10 nM, Zn-rhAFP 1.4 μM): 55%
